{"source": "paper PMC7167990", "about": "“Therapeutic Effects of Atranorin towards the Proliferation of Babesia and Theileria Parasites” (Pathogens, 2020)", "key": {"T. equi": {"test_system": "T. equi", "experiment": "In vitro growth inhibition, Babesia fluorescent (SYBR Green I) assay", "assay_type": "cell-based", "details": "4 days culture, mean of triplicate experiments", "description": "(§1) Babesia parasite was incubated and maintained at 37 °C in a humidifying chamber under 5% CO2, 5% O2, and 90% N2 atmosphere using a microaerophilic stationary-phase culture for conducting the in vitro experiment. Briefly, Germany strain Babesia divergens was cultured in cattle RBCs in Roswell Park Memorial Institute 1640 (RPMI 1640; Sigma-Aldrich, St. Louis, MO, USA) medium replenished with 40% cattle serum, while culture medium 199 (M199; Sigma-Aldrich) was utilized for the Argentina strain B. bigemina and Texas strain B. bovis, and T. equi USDA strain cultured in cattle RBCs supplemented with 40% cattle serum and horse RBCs maintained in hypoxanthine (MP Biomedicals, Santa Ana, CA, USA; final concentration 13.6 μg/mL) and 40% horse serum, respectively. GIT medium complemented with 40% horse serum was used as a growth medium for the USDA strain of B. caballi cultured in horse RBCs. To ensure free-bacterial contamination, amphotericin B (0.15 μg/mL) (Sigma-Aldrich), streptomycin (60 U/mL) and penicillin G (60 U/mL) were added to all medium.\n(§2) The Babesia fluorescent assay was carried out on the in vitro culture as previously reported elsewhere to assess the growth of the inhibitory effectiveness of ATR and the combination treatment with DA, CF, and AV. Briefly, in three separate trials, using two-fold dilution, different concentrations of ATR, DA, CF, and AV were prepared in the culture medium and added in 96-well plates in triplicate with 1% parasitemia for T. equi, B. divergens and B. caballi at 5% HCT, while for B. bigemina and B. bovis using 2.5% HCT. The drug combined efficacy was conducted at the same time with the single-treatment assay in accordance with the Chou–Talalay method. […] On day four of culture, an aliquot (100 µL) of lysis buffer mixed with 0.2μL/mL SG1 was added per well; subsequently, it was covered with aluminum foil to prevent exposure to light. After incubation for 6-h at 37 °C, fluorescence readings were acquired on a spectrofluorimeter (Fluoroskan Ascent, Thermo Fisher Scientific, Oceanside, CA, USA) with a 485 nm excitation wavelength and a 518 nm emission wavelength.\n(§3) The IC50 values of ATR, DA, CF, and AV were established from the in vitro growth inhibition by nonlinear regression curve fit on a GraphPad Prism (GraphPad Software Inc., San Diego, CA, USA). […] The significant variations (p < 0.05) among group mean values on parasitemia and one-way ANOVA Tukey’s test in GraphPad Prism version 5.0 was used to analyze hematology profiles in mice infected with B. microti."}, "B. bovis": {"test_system": "B. bovis", "experiment": "In vitro growth inhibition, Babesia fluorescent (SYBR Green I) assay", "assay_type": "cell-based", "details": "4 days culture, mean of triplicate experiments", "description": "as §1, §2, §3"}, "B. bigemina": {"test_system": "B. bigemina", "experiment": "In vitro growth inhibition, Babesia fluorescent (SYBR Green I) assay", "assay_type": "cell-based", "details": "4 days culture, mean of triplicate experiments", "description": "as §1, §2, §3"}, "B. divergens": {"test_system": "B. divergens", "experiment": "In vitro growth inhibition, Babesia fluorescent (SYBR Green I) assay", "assay_type": "cell-based", "details": "4 days culture, mean of triplicate experiments", "description": "as §1, §2, §3"}, "B. caballi": {"test_system": "B. caballi", "experiment": "In vitro growth inhibition, Babesia fluorescent (SYBR Green I) assay", "assay_type": "cell-based", "details": "4 days culture, mean of triplicate experiments", "description": "as §1, §2, §3"}, "MDBK cells": {"test_system": "MDBK cells", "experiment": "Cytotoxicity assay (CCK-8 cell viability)", "assay_type": "cell-based, bovine", "description": "(§4) Cultures of human foreskin fibroblast (HFF; HFF-1 ATCC® SCRC-1041™), Madin–Darby bovine kidney (MDBK; ECACC) and mouse embryonic fibroblast (NIH/3T3; ATCC® CRL-1658™) cells were retrieved from −80 °C stock and cultured continuously at 37 °C under atmosphere 5% CO2 in our laboratory. The NIH/3T3 and HFFs cells were maintained in Dulbecco Modified Eagle’s Medium (DMEM; Gibco, Grand Island, NY, USA), while MDBK cell line grown in Minimum Essential Medium Eagle (MEM; Gibco). Each medium was treated with 0.5% penicillin/streptomycin (Gibco), 10% inactivated fetal bovine serum and 2 mM glutamine. Every 72 to 96 h, the medium was replaced, and once 80% confluence was reached, the cell collection was performed by sub-culture protocol. To confirm the absence of mycoplasma contamination, 4,6-diamidino-2-phenylindole dihydrochloride stain (Sigma-Aldrich) was used.\n(§5) The cell viability test was conducted in a 96-well plate as described elsewhere. Briefly, an aliquot of (100 µL) cells was implanted at a concentration of 5 × 10^4 cells/mL in DMEM or MEM with fetal bovine serum and incubated overnight under atmosphere 5% CO2 at 37 °C for attachment. Using two-fold dilutions, aliquots (10 µL) of drugs were added in triplicate per well to attain final concentrations of 50 to 1000 µM and further incubated for 24 h. The positive control wells containing cells mixed with the medium in 0.4% DMSO, whereas the negative control wells containing culture medium only. After a 24-h incubation, Cell Counting Kits-8 (CCK-8, 10 µL) was added to each well and then plate incubation was conducted for an additional 3 h and a microplate reader was used to assess the absorbance at 450 nm."}, "[1]": {"experiment": "Hematology parameters (HGB, HCT, RBCs) in B. microti-infected treated mice", "assay_type": "in vivo, BALB/c mice", "set-up": "HGB Mean: unit not given beside the values; RBCs Mean: unit not given here", "details": "DA 25, AV 20, ATR 25, ATR 12.5+DA 12.5, ATR 12.5+AV 10 mg/kg BW, days 4-8 p.i."}, "B. microti": {"test_system": "B. microti", "details": "B. microti-infected BALB/c mice, days 4-8 p.i."}, "HFFs": {"test_system": "HFFs", "experiment": "Cytotoxicity assay (CCK-8 cell viability)", "assay_type": "cell-based, human", "description": "as §4, §5"}}, "data": [{"smiles": "CC(=O)NCC(=O)O.CC(=O)NCC(=O)O.N=C(N)c1ccc(N=NNc2ccc(C(=N)N)cc2)cc1", "note": "[DA, diminazene aceturate]", "values": [{"measurement": "IC50", "setting": "T. equi", "value": "710 ± 50", "unit": "nM"}, {"measurement": "IC50", "setting": "B. bovis", "value": "350 ± 60", "unit": "nM"}, {"measurement": "IC50", "setting": "B. bigemina", "value": "680 ± 90", "unit": "nM"}, {"measurement": "IC50", "setting": "B. divergens", "value": "430 ± 50", "unit": "nM"}, {"measurement": "IC50", "setting": "B. caballi", "value": 20, "unit": "nM"}, {"measurement": "Selective Index MDBK", "setting": "MDBK cells; EC50 MDBK / IC50 B. bigemina", "value": "˃147.1"}, {"measurement": "Selective Index MDBK", "setting": "MDBK cells; EC50 MDBK / IC50 B. bovis", "value": "˃285.7"}, {"measurement": "Selective Index MDBK", "setting": "MDBK cells; EC50 MDBK / IC50 B. caballi", "value": "˃5000"}, {"measurement": "Selective Index MDBK", "setting": "MDBK cells; EC50 MDBK / IC50 B. divergens", "value": "˃232.5"}, {"measurement": "Selective Index MDBK", "setting": "MDBK cells; EC50 MDBK / IC50 T. equi", "value": "˃140.8"}, {"measurement": "EC50", "setting": "MDBK cells; MDBK cells, 24 h, CCK-8", "value": "> 100000", "unit": "nM"}, {"measurement": "HCT Mean", "setting": "[1]; day 0", "value": 46.48, "unit": "%"}, {"measurement": "HGB Mean", "setting": "[1]; day 0", "value": 15.64}, {"measurement": "RBCs Mean", "setting": "[1]; day 0", "value": 990.625}, {"measurement": "HCT Mean", "setting": "[1]; day 4", "value": 46.18, "unit": "%"}, {"measurement": "HGB Mean", "setting": "[1]; day 4", "value": 13.64}, {"measurement": "RBCs Mean", "setting": "[1]; day 4", "value": 954.75}, {"measurement": "HCT Mean", "setting": "[1]; day 8", "value": 46.18, "unit": "%"}, {"measurement": "HGB Mean", "setting": "[1]; day 8", "value": 14.72}, {"measurement": "RBCs Mean", "setting": "[1]; day 8", "value": 888.25}, {"measurement": "HCT Mean", "setting": "[1]; day 12", "value": 44.1, "unit": "%"}, {"measurement": "HGB Mean", "setting": "[1]; day 12", "value": 13.6}, {"measurement": "RBCs Mean", "setting": "[1]; day 12", "value": 860}, {"measurement": "HCT Mean", "setting": "[1]; day 16", "value": 45.52, "unit": "%"}, {"measurement": "HGB Mean", "setting": "[1]; day 16", "value": 14.46}, {"measurement": "RBCs Mean", "setting": "[1]; day 16", "value": 870.25}, {"measurement": "HCT Mean", "setting": "[1]; day 20", "value": 44.14, "unit": "%"}, {"measurement": "HGB Mean", "setting": "[1]; day 20", "value": 15.02}, {"measurement": "RBCs Mean", "setting": "[1]; day 20", "value": 880}, {"measurement": "HCT Mean", "setting": "[1]; day 24", "value": 46, "unit": "%"}, {"measurement": "HGB Mean", "setting": "[1]; day 24", "value": 15.2}, {"measurement": "RBCs Mean", "setting": "[1]; day 24", "value": 888}, {"measurement": "HCT Mean", "setting": "[1]; day 28", "value": 47, "unit": "%"}, {"measurement": "HGB Mean", "setting": "[1]; day 28", "value": 15.64}, {"measurement": "RBCs Mean", "setting": "[1]; day 28", "value": 984.75}, {"measurement": "HCT Mean", "setting": "[1]; day 32", "value": 49, "unit": "%"}, {"measurement": "HGB Mean", "setting": "[1]; day 32", "value": 15.94}, {"measurement": "RBCs Mean", "setting": "[1]; day 32", "value": 990.625}, {"measurement": "HCT Mean", "setting": "[1]; day 36", "value": 49, "unit": "%"}, {"measurement": "HGB Mean", "setting": "[1]; day 36", "value": 16.64}, {"measurement": "RBCs Mean", "setting": "[1]; day 36", "value": 997.625}, {"measurement": "first day on which parasitemia was not detected by microscopy", "setting": "B. microti; DA 25, AV 20, ATR 25, ATR 12.5+DA 12.5, ATR 12.5+AV 10 mg/kg BW", "value": 16, "unit": "day p.i."}, {"measurement": "peak parasitemia level", "setting": "B. microti; DA at 25 mg/kg, peak on day 10", "value": 7.94, "unit": "%"}, {"measurement": "Selective Index HFFs", "setting": "HFFs; EC50 HFFs / IC50 B. bigemina", "value": "˃147.1"}, {"measurement": "Selective Index HFFs", "setting": "HFFs; EC50 HFFs / IC50 B. bovis", "value": "˃285.7"}, {"measurement": "Selective Index HFFs", "setting": "HFFs; EC50 HFFs / IC50 B. caballi", "value": "˃5000"}, {"measurement": "Selective Index HFFs", "setting": "HFFs; EC50 HFFs / IC50 B. divergens", "value": "˃232.5"}, {"measurement": "Selective Index HFFs", "setting": "HFFs; EC50 HFFs / IC50 T. equi", "value": "˃140.8"}, {"measurement": "EC50", "setting": "HFFs; HFFs, 24 h, CCK-8", "value": "> 100000", "unit": "nM"}]}]}
